Assay results published in patent US20260132165A1, “MODIFIED NUCLEOSIDE ANALOGUE AND USE THEREOF, AND NUCLEOSIDE ANALOGUE-CONTAINING DOUBLE-STRANDED OLIGONUCLEOTIDE AND USE THEREOF” (RIGERNA THERAPEUTICS (BEIJING) CO., LTD., priority 2023, published 2026).

Legend:
target gene SOD1 [1] = experiment: Test Example 7: inhibitory activity of lipid conjugated siRNA sequences on SOD1 in mouse adipose and muscle tissues (tail vein injection); type: in vivo, C57BL/6j mice
Method: (§1) RNA extraction: the above tissue samples were taken out from the RNAlater, and smashed for 60 s in Tissuelyser type II full-automatic tissue homogenizer, and total RNAs of various tissue samples were extracted using the full-automatic nucleic acid extraction instrument and the nucleic acid extraction kit from Zhejiang Hanwei Science and Technology Co. Ltd. according to methods described in instructions.
(§2) Reverse transcription reaction: 1 μg of the extracted total RNAs of the tissue samples were taken, and configured into 20 μL of reverse transcription system according to a method described in kit instructions by using a reverse transcription kit (Reverse Transcription System, A3500) from Promega Corporation and selecting Oligo (dT)15 reverse transcription primers, and the reverse transcription reaction was completed. After the reaction was ended, 80 μL of RNase-Free water was added into the reverse transcription system to provide cDNA solution for Real-time PCR detection.
(§3) Real-time PCR detection: 20 μL of Real-time PCR reaction system per PCR detection well was configured according to a method described in kit instructions using SYBR™ Select Master Mix (Catalog number: 4472908) reagent from ABI company. Each detection system contained 5 μL of cDNA template obtained from the above reverse transcription reaction, 10 μL of SYBR™ Select Master Mix, 0.5 μL of 10 μM upstream primers, 0.5 μL of 10 μM downstream primers, and 4 μL of RNase-Free H2O. The configured reaction system was subjected to Real-time PCR amplification on ABI StepOnePlus PCR instrument by a three-step method, wherein an amplification procedure was pre-denaturation at 95° C. for 10 min, then denaturation at 95° C. for 30 s, annealing at 60° C. for 30 s, and extension at 72° C. for 30 s; and processes of denaturation, annealing, and extension were repeated for 40 cycles. Gene expression differences were calculated by the ΔΔCt method after completion of the procedure.
(§4) In the real-time fluorescence quantitative PCR method, relative quantitative calculation of remaining expression level and inhibition rate of gene mRNA of interest in various test groups was performed by the ΔΔCt method, and the calculation method is as follows:
The present test example evaluated, by an evaluation method for inhibitory activity on a target gene in mice, the inhibitory activity of siRNA sequence RZ899090 with the sense strand with the NM073 conjugation at Position 4, siRNA sequence RZ899091 with the sense strand with the NM074 conjugation at Position 4, siRNA sequence RZ899078 with the sense strand with the NM202 conjugation at Position 6 and siRNA reference sequence RZ899093 with the sense strand with the Uhd conjugation at Position 4, and siRNA reference sequence RZ899076 with the sense strand with the NM200 conjugation at Position 4 on the target gene SOD1 of interest in mice. The above conjugation vectors were different in that NM073 was C18 aliphatic chain, NM074 was C20 aliphatic chain, and NM0202 and NM0200 were C22 aliphatic chains.
6-8 Week-old C57BL/6j mice were randomly grouped by body weight, 15 per group, 6 groups in total. Mice in each group were dosed with the above siRNA conjugates by tail vein injection, with an administration dose of 5 mg/kg per mouse, and an administration volume of 150 μL. PBS control group was administered with the same volume of siRNA conjugate-free PBS solution. The day of administration was recorded as D0, and 5 mice in each group were sacrificed on D14, D28 and D49 after administration. Tissues such as paragonadal fat, left hind leg quadriceps muscle, heart, liver, and kidney were respectively taken and stored in the RNAlater. RNA extraction, reverse transcription, and real-time fluorescence quantitative detection were performed on various tissues according to the above method, and gene expression differences were calculated by the above ΔΔCt method.

target gene SOD1 [2] = experiment: Test Example 6: inhibitory activity of NM073, NM074 conjugated siRNA sequences on SOD1 by intrathecal administration to rats; type: in vivo, SD rats; details: D28
Method: 6-8 Week-old SD rats were randomly grouped by body weight. Rats in each group were administered with siRNA by intrathecal administration, with an administration dose of 900 μg per rat. Injection was administered from rat spinal cord L5-L6, with an administration volume of 40 μL. Needle was retained for 2 min after completion of injection, and then slowly withdrawn. PBS control group was administered with the same volume of siRNA conjugate-free PBS solution. The day of administration was recorded as 0 day (D0), and the rats were sacrificed at observation point after administration. Different segments of spinal cord and different regions of brain were respectively taken and stored in the RNAlater.
as §1, §2, §3, §4
The present test example evaluated, by an evaluation method for inhibitory activity on a target gene by intrathecal administration to rats, the inhibitory activity of siRNA sequence RZ899090 with the NM073 conjugation at Position 4, siRNA sequence RZ899091 with the NM074 conjugation at Position 4 and siRNA control sequence RZ899093 with the Uhd conjugation on the target gene SOD1 of interest in spinal cord and brain of rats. The above conjugation vectors were different in that NM073 was C18 aliphatic chain and NM074 was C20 aliphatic chain.
6-8 Week-old SD rats were randomly grouped by body weight, 5 per group, 4 groups in total. Rats in each group were dosed with the above siRNA conjugates by intrathecal administration, with an administration dose of 900 μg per rat, and an administration volume of 40 μL. PBS control group was administered with the same volume of siRNA conjugate-free PBS solution. The day of administration was recorded as D0, and the rats were sacrificed on D28 after administration. […]

RZ899091: siRNA sequence with the sense strand with the NM074 (C20) conjugation at Position 4; SEQ ID NO: 16 / 23 (sense UUUNAAUCCUCACUCUAAA; antisense UUUAGAGUGAGGAUUAAAAUG; NM074 (C20) conjugate at sense position 4; modified_base 1..2 OTHER; 2'-methoxy and 5'-thiophosphate modified nucleotides; modified_base 3 OTHER; 2'-methoxy modified nucleotide; modified_base 4 OTHER; n is the synthetic nucleotide analog NM074 as described in the disclosure.; modified_base 5..6 OTHER; 2'-methoxy modified nucleotides; modified_base 7..10 OTHER; 2'-fluoro modified nucleotides; modified_base 11..19 OTHER; 2'-methoxy modified ; modified_base 1 OTHER; 2'-methoxy and 5'-thiovinylphosphonate modified nucleotide; modified_base 2 OTHER; 2'-fluoro and 5'-thiophosphate modified …)
inhibitory action on liver and kidney tissues (target gene SOD1 [1]; liver and kidney (non-target tissues), tail vein 5 mg/kg, D28 and D49): no inhibitory action | D 14 % Mean value of inhibition rate (target gene SOD1 [1]; mouse adipose tissues (paragonadal fat), tail vein injection 5 mg/kg, D14): 86.81% | D 28 % Mean value of inhibition rate (target gene SOD1 [1]; mouse adipose tissues (paragonadal fat), tail vein injection 5 mg/kg, D28): 86.36% | D 49 % Mean value of inhibition rate (target gene SOD1 [1]; mouse adipose tissues (paragonadal fat), tail vein injection 5 mg/kg, D49): 81.73% | inhibitory activity compared with the NM200 conjugated reference sequence RZ899076 (target gene SOD1 [1]; mouse adipose tissues, tail vein 5 mg/kg, D14): on par | gene inhibitory effect compared with RZ899076 (target gene SOD1 [1]; mouse adipose tissues, tail vein 5 mg/kg, D49): superior gene inhibitory effect | inhibitory activity compared with Uhd conjugated reference sequence RZ899093 and NM200 conjugated reference sequence RZ899076 (target gene SOD1 [1]; mouse heart tissues, tail vein 5 mg/kg, D14, D28 and D49): superior inhibitory activity | D 14 % Mean value of inhibition rate (target gene SOD1 [1]; mouse heart tissues, tail vein injection 5 mg/kg, D14): 87.44% | D 28 % Mean value of inhibition rate (target gene SOD1 [1]; mouse heart tissues, tail vein injection 5 mg/kg, D28): 82.78% | D 49 % Mean value of inhibition rate (target gene SOD1 [1]; mouse heart tissues, tail vein injection 5 mg/kg, D49): 81.89% | Kidney D 14 % Mean value of inhibition rate (target gene SOD1 [1]; mouse kidney, tail vein injection 5 mg/kg, D14): 31.71% | Kidney D 28 % Mean value of inhibition rate (target gene SOD1 [1]; mouse kidney, tail vein injection 5 mg/kg, D28): 3.50% | Kidney D 49 % Mean value of inhibition rate (target gene SOD1 [1]; mouse kidney, tail vein injection 5 mg/kg, D49): 9.97% | Liver D 14 % Mean value of inhibition rate (target gene SOD1 [1]; mouse liver, tail vein injection 5 mg/kg, D14): 49.04% | Liver D 28 % Mean value of inhibition rate (target gene SOD1 [1]; mouse liver, tail vein injection 5 mg/kg, D28): 13.03% | Liver D 49 % Mean value of inhibition rate (target gene SOD1 [1]; mouse liver, tail vein injection 5 mg/kg, D49): 7.59% | D 14 % Mean value of inhibition rate (target gene SOD1 [1]; mouse skeletal muscle tissues (left hind leg quadriceps muscle), tail vein injection 5 mg/kg, D14): 69.80% | D 28 % Mean value of inhibition rate (target gene SOD1 [1]; mouse skeletal muscle tissues (left hind leg quadriceps muscle), tail vein injection 5 mg/kg, D28): 72.24% | D 49 % Mean value of inhibition rate (target gene SOD1 [1]; mouse skeletal muscle tissues (left hind leg quadriceps muscle), tail vein injection 5 mg/kg, D49): 41.89% | inhibitory activity in mouse skeletal muscle tissues (target gene SOD1 [1]; skeletal muscle, tail vein 5 mg/kg): certain inhibitory activity | Cerebellum % Mean value of inhibition rate (target gene SOD1 [2]; cerebellum, intrathecal, 900 μg per rat): 73.86% | Cortex % Mean value of inhibition rate (target gene SOD1 [2]; cerebral cortex, intrathecal, 900 μg per rat): 28.78% | Hippocampus % Mean value of inhibition rate (target gene SOD1 [2]; hippocampus, intrathecal, 900 μg per rat): 70.69% | level of inhibition on the target gene compared with the Uhd control conjugate (RZ899093) (target gene SOD1 [2]; intrathecal 900 μg per rat): superior level of inhibition on the target gene in the spinal cord segment, cerebellum, and hippocampus | Cervical segment % Mean value of inhibition rate (target gene SOD1 [2]; spinal cord cervical segment, intrathecal, 900 μg per rat): 92.15% | Lumbar segment % Mean value of inhibition rate (target gene SOD1 [2]; spinal cord lumbar segment, intrathecal, 900 μg per rat): 95.17% | Thoracic segment % Mean value of inhibition rate (target gene SOD1 [2]; spinal cord thoracic segment, intrathecal, 900 μg per rat): 98.15%
